Laboratory results taken from patent US20080213250A1, “Use of Eph Receptor Inhibitors for the Treatment of Neurodegenerative Diseases” (priority 2004, published 2008).

Assays:
[1] = molecular target: T1, EphB1 (Mus musculus, UniProt Q8CBF3); test: Chemical proteomics pull-down with immobilized compound, LC-MS/MS identification; conditions: maximum in any chemical proteomics experiment
T1 sequence (Q8CBF3 18-984): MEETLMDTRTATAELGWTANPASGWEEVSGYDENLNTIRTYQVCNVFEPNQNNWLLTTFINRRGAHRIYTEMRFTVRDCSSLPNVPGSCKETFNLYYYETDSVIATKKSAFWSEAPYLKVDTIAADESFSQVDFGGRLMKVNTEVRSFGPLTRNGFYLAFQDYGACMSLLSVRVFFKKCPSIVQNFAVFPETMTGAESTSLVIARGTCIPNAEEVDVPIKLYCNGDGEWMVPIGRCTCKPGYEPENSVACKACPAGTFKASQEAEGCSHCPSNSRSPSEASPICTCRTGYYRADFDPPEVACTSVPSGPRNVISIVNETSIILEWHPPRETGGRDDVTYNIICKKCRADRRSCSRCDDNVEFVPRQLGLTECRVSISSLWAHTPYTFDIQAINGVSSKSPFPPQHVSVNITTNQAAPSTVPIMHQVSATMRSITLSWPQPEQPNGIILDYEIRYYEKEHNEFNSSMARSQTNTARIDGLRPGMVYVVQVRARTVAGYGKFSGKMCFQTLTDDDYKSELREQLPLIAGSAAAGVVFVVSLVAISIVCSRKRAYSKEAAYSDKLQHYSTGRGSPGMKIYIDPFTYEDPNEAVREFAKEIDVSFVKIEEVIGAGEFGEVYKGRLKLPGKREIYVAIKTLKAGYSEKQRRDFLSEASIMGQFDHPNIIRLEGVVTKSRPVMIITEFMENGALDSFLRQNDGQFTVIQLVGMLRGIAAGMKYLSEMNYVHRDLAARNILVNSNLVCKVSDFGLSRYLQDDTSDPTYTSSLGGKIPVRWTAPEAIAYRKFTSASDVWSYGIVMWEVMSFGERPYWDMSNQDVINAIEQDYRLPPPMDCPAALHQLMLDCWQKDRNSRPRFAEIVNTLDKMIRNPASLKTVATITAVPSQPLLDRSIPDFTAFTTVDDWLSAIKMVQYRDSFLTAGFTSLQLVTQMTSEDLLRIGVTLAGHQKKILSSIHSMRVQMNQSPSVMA

[2] = tested on: TAP-tagged Eph kinases; test: Autophosphorylation of TAP-tagged Eph kinases in cells; assay type: cell-based; conditions: in cells (FIG. 2)
Protocol: Cells are plated in 6-well plates in growth medium (see above). To test potential modulators, preferably inhibitors, of Eph kinase tyrosine phosphorylation, cells are starved in serum-free medium for 4 h. Under these conditions, Eph-TAP kinase is partially constitutively phosphorylated-presumably through autophosphorylation that is commonly associated with over-expression of receptor tyrosine kinases. This feature is exploited to monitor the effect of Eph kinase modulators. Test compounds are diluted (from a stock in DMSO) in serum-free medium and added to cells for indicated times. Cells are chilled on ice and washed with ice-cold PBS. They are then lysed in 300 μl lysis buffer (50 mM Tris-HCl, 1% NP-40, 0.05% SDS, 100 mM NaCl, 1.5 mM MgCl2, 2 mM EDTA, 5% glycerol, pH 7.6) for 20 min at 4 °C and cleared by centrifugation at 16,100×g in a table-top centrifuge for 20 min.
Lysates are subsequently incubated with 20 μl pre-washed rabbit IgG beads (Sigma) for 2 h with constant agitation at 4° C. Beads are finally washed with 1 ml of lysis buffer and immobilized protein complexes are eluted by boiling in 40 μl SDS sample buffer.
Blot membranes are probed with monoclonal antibody 4G10 (Upstate Biotechnology) or with HRP-coupled PAP antibody (see above).

[3] = molecular target: EphA2 (Mus musculus, UniProt Q03145); test: Chemical proteomics pull-down with immobilized compound, LC-MS/MS identification; conditions: maximum in any chemical proteomics experiment
[4] = molecular target: T2, EphA3 (Mus musculus, UniProt P29319); test: as above; conditions: maximum in any chemical proteomics experiment
T2 sequence (P29319 21-983): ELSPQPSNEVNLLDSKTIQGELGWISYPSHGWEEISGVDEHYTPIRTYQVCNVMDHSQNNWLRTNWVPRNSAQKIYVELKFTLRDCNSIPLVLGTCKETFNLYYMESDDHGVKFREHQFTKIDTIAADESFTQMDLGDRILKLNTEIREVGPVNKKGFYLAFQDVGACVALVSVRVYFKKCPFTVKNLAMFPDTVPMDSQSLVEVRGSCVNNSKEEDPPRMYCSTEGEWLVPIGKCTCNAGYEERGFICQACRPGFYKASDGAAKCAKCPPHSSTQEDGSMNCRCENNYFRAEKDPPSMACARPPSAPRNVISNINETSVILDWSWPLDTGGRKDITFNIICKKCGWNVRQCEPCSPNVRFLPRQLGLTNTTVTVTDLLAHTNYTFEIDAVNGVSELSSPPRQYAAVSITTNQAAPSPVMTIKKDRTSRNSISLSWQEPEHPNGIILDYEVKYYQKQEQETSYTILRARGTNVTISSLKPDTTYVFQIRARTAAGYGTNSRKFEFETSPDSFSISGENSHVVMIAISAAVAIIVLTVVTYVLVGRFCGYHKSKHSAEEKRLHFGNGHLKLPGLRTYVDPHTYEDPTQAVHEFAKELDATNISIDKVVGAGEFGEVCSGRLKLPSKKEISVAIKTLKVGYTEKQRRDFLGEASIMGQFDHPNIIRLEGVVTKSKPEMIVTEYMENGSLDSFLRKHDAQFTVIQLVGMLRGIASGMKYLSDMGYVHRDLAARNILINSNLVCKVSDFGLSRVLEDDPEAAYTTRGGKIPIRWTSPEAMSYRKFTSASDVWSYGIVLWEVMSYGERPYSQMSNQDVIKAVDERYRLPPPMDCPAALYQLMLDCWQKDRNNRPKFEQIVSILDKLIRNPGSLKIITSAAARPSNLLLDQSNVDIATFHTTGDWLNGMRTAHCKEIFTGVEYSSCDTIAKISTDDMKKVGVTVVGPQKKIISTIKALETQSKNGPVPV

Chain of EphA2 (Q03145 26-977): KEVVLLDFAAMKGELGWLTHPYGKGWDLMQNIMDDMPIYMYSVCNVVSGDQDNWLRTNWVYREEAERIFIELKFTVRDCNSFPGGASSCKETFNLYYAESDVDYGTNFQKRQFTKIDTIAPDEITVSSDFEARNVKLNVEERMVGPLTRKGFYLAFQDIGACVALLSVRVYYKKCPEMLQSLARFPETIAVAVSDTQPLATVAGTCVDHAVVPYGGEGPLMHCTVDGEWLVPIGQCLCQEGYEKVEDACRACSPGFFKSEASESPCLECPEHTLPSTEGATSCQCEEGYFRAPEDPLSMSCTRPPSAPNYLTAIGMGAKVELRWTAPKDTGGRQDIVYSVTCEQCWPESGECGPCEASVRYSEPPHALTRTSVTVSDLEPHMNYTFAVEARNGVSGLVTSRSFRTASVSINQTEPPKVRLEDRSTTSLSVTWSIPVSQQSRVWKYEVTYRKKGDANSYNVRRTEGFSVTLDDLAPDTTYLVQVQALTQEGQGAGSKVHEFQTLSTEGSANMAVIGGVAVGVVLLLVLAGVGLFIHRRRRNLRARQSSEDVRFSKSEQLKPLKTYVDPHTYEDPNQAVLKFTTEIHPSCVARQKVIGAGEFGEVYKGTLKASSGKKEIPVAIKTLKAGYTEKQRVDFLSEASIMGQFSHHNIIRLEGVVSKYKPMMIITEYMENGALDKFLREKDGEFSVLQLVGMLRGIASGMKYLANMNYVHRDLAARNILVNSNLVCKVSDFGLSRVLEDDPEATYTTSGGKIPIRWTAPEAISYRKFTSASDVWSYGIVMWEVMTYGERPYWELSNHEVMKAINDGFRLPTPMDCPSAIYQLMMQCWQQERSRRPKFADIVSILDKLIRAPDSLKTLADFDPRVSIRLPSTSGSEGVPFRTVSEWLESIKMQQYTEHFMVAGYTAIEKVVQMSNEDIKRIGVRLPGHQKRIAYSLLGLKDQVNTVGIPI

Compound	maximal number of non-redundant peptides identified, EphB1 [1]	inhibition of autophosphorylation of TAP-tagged Eph kinases in cells [2]	maximal number of non-redundant peptides identified, EphA2 [3]	maximal number of non-redundant peptides identified, EphA3 [4]
CSc1cccc(Nc2ncc3cc(-c4c(Cl)cccc4Cl)c(=O)n(C)c3n2)c1 [PD173955]	5	potent inhibitors		
CC(C)[C@H](CO)Nc1nc(Nc2ccc(C(=O)O)c(Cl)c2)c2ncn(C(C)C)c2n1 [Purvalanol B]			18	1
